Assay results reported in patent US8062995B2, “Dioxazine-substituted arylamides” (Bayer CropScience AG, priority 2005, dated 2011).
Blank lines part the entries; values can stand above or below the compound they belong to.

Experiments:
[1] = system: larvae of the mustard beetle (Phaedon cochleariae); experiment: Phaedon test (sprayed Chinese cabbage discs); type: in vivo
Description: (§1) Phaedon Test Solvents: 78 parts by weight of acetone • • 1.5 parts by weight of dimethylformamide Emulsifier: 0.5 part by weight of alkylaryl polyglycol ether To produce a suitable preparation of active compound, 1 part by weight of active compound is mixed with the stated amounts of solvents and emulsifier and the concentrate is diluted with emulsifier-containing water to the desired concentration. Discs of Chinese cabbage (Brassica pekinensis) are sprayed with an active compound preparation of the desired concentration and, after drying, populated with larvae of the mustard beetle (Phaedon cochleariae). After the desired period of time, the activity in % is determined. 100% means that all beetle larvae have been killed; 0% means that none of the beetle larvae have been killed.

[2] = system: caterpillars of the army worm (Spodoptera frugiperda); experiment: Spodoptera frugiperda test (SPODFR spray treatment); type: in vivo; settings: for Kill rate after 7d in %: spray treatment
Description: Spodoptera frugiperda Test (SPODFR Spray Treatment) Solvents: 78 parts by weight of acetone • • 1.5 parts by weight of dimethylformamide Emulsifier: 0.5 part by weight of alkylaryl polyglycol ether To produce a suitable preparation of active compound, 1 part by weight of active compound is mixed with the stated amounts of solvents and emulsifier and the concentrate is diluted with emulsifier-containing water to the desired concentration. Discs of maize leaves (Zea mays) are sprayed with an active compound preparation of the desired concentration and after drying populated with caterpillars of the army worm (Spodoptera frugiperda). After the desired period of time, the activity in % is determined. 100% means that all of the caterpillars have been killed; 0% means that none of the caterpillars have been killed.

[3] = system: Spodoptera frugiperda larvae; experiment: Spodoptera frugiperda test (treatment by watering); type: in vivo; settings: for Kill rate after 14d in %: 20 ppm, treatment by watering
Description: Spodoptera frugiperda Test Solvent: 7 parts by weight of dimethylformamide Emulsifier: 2 parts by weight of alkylaryl polyglycol ether To produce a suitable preparation of active compound, 1 part by weight of active compound is mixed with the stated amounts of solvent and emulsifier and the concentrate is diluted with water to the desired concentration. Maize plants (Zea mays) are watered with an active compound preparation of the desired concentration and infected with Spodoptera frugiperda larvae. After the desired period of time, the kill in % is determined. 100% means that all larvae have been killed; 0% means that none of the larvae have been killed.

[4] = system: caterpillars of the army worm (Spodoptera exigua); experiment: Spodoptera exigua test (leaf dip); type: in vivo
Description: (§2) Spodoptera exigua Test Solvent: 7 parts by weight of dimethylformamide Emulsifier: 2 parts by weight of alkylaryl polyglycol ether To produce a suitable preparation of active compound, 1 part by weight of active compound is mixed with the stated amounts of solvent and emulsifier and the concentrate is diluted with emulsifier-containing water to the desired concentration. Cabbage leaves (Brassica oleracea) are treated by being dipped into the active compound preparation of the desired concentration and populated with caterpillars of the army worm (Spodoptera exigua) while the leaves are still moist. After the desired period of time, the kill in % is determined. 100% means that all caterpillars have been killed; 0% means that none of the caterpillars have been killed.

[5] = system: caterpillars of the cotton bollworm (Heliothis armigera); experiment: Heliothis armigera test (leaf dip); type: in vivo
Description: as §2, with “Heliothis armigera” for “Spodoptera exigua”, “Soya bean” for “Cabbage”, “(Glycine max.)” for “(Brassica oleracea)”, “cotton bollworm (Heliothis armigera)” for “army worm (Spodoptera exigua)”

[6] = system: Spodoptera exigua, resistant strain; experiment: Spodoptera exigua test; resistant strain; type: in vivo; settings: for Kill rate after 7d in %: resistant strain
Description: Spodoptera exigua Test; Resistant Strain
Solvent: 7 parts by weight of dimethylformamide
Emulsifier: 2 parts by weight of alkylaryl polyglycol ether
To produce a suitable preparation of active compound, 1 part by weight of active compound is mixed with the stated amounts of solvent and emulsifier and the concentrate is diluted with emulsifier-containing water to the desired concentration.
Cabbage leaves (Brassica oleracea) are treated by being dipped into the active compound preparation of the desired concentration and populated with caterpillars of the army worm (Spodoptera exigua, resistant strain) while the leaves are still moist.
After the desired period of time, the kill in % is determined. 100% means that all caterpillars have been killed; 0% means that none of the caterpillars have been killed.

[7] = system: caterpillars of the diamondback moth (Plutella xylostella); experiment: Plutella test (leaf dip); type: in vivo
Description: as §2, with “Plutella” for “Spodoptera exigua”, “Cabbages” for “Cabbage”, “diamondback moth (Plutella xylostella)” for “army worm (Spodoptera exigua)”

[8] = system: green peach aphid (Myzus persicae); experiment: Myzus test; oral; type: in vivo; settings: for Kill rate after 5d in %: 100 ppm, oral
Description: Myzus Test; Oral Solvent: 80 parts by weight of acetone To produce a suitable preparation of active compound, 1 part by weight of active compound is mixed with the stated amounts of solvent and the concentrate is diluted with water to the desired concentration. Vessels are populated with all stages of the green peach aphid (Myzus persicae) which are treated by sucking the active compound preparation of the desired concentration. After the desired period of time, the activity in % is determined. 100% means that all aphids have been killed; 0% means that none of the aphids have been killed.

[9] = logP determination by HPLC (reversed-phase C18), EEC Directive 79/831 Annex V.A8; type: physicochemical; settings: HPLC reversed-phase C18, 43° C., acidic range pH 2.7
Description: The logP values given in the tables and Preparation Examples above are determined in accordance with EEC Directive 79/831 Annex V.A8 by HPLC (High Performance Liquid Chromatography) on a reversed-phase column (C 18). Temperature: 43° C. The determination by LC-MS in the acidic range is carried out at pH 2.7 using 0.1% aqueous formic acid and acetonitrile (contains 0.1% formic acid) as mobile phases; linear gradient from 10% acetonitrile to 95% acetonitrile. Calibration is carried out using unbranched alkan-2-ones (having 3 to 16 carbon atoms) with known logP values (determination of the logP values by the retention times using linear interpolation between two successive alkanones).

[10] = system: Diabrotica undecimpunctata; experiment: Diabrotica undecimpunctata (DIABUN) test (eggs); type: in vivo
Description: Diabrotica undecimpunctata (DIABUN) Solvents: 1% of N-methylpyrrolidone (NMP) • 1% of diacetone alcohol Dye: brilliant sulphoflavin for staining the water To produce a suitable preparation of active compound, the active compound is mixed with the stated amounts of solvents and the concentrate is diluted with stained water to the desired concentration. The eggs (Diabrotica undecimpunctata) are treated with an active compound preparation of the desired concentration. After the desired period of time, the activity in % is determined. 100% means that all animals have been killed; 0% means that none of the animals have been killed.

[11] = system: green peach aphid (Myzus persicae); experiment: Myzus test (MYZUPE spray treatment); type: in vivo; settings: for Kill rate after 5d in %: 100 g/ha, spray treatment
Description: as §1, with “Myzus” for “Phaedon”, “Test (MYZUPE Spray Treatment)” for “Test”, “pekinensis), which are infested by all stages of the green peach aphid (Myzus persicae)” for “pekinensis)”, “concentration.” for “concentration and, after drying, populated with larvae of the mustard beetle (Phaedon cochleariae).”, “aphids” for “beetle larvae”

Structure (SMILES): O=C(Nc1c(Cl)cc(Cl)cc1C1=NOCCO1)c1cc(C(F)(F)F)nn1-c1cccc(Cl)n1 [Example I-1-1]
- activity in the Phaedon test (in words) [1]: good activity
- Kill rate after 7d in % ([1]; 500 g/ha): 100%
- activity in the Spodoptera frugiperda test, spray treatment (in words) [2]: good activity
- Kill rate after 7d in % ([2]; 500 g/ha): 100%
- activity in the Spodoptera frugiperda test, watering (in words) [3]: good activity
- Kill rate after 14d in % [3]: 95%
- activity in the Spodoptera exigua test (in words) [4]: good activity
- Kill rate after 7d in % ([4]; 20 ppm): 100%
- activity in the Heliothis armigera test (in words) [5]: good activity
- Kill rate after 7d in % ([5]; 20 ppm): 100%
- activity in the Spodoptera exigua test, resistant strain (in words) [6]: good activity
- Kill rate after 7d in % ([6]; 100 ppm): 100%
- activity in the Plutella test (in words) [7]: good activity
- Kill rate after 7d in % ([7]; 100 ppm): 100%
- activity in the Myzus test, oral (in words) [8]: good activity

Structure (SMILES): Cc1cccc(C2=NOCCN2)c1NC(=O)c1cc(Cl)nn1-c1ncccc1Cl [Example I-1-17]
- logP [9]: 1.65
- activity in the Phaedon test (in words) [1]: good activity
- activity in the Myzus test, spray treatment (in words) [11]: good activity
- Kill rate after 5d in % [11]: 100%
- activity in the Spodoptera frugiperda test, spray treatment (in words) [2]: good activity
- Kill rate after 7d in % ([2]; 100 g/ha): 100%
- Kill rate after 14d in % [3]: 98%
- activity in the Spodoptera exigua test (in words) [4]: good activity
- Kill rate after 7d in % ([4]; 4 ppm): 100%
- activity in the Heliothis armigera test (in words) [5]: good activity
- Kill rate after 7d in % ([5]; 4 ppm): 100%
- activity in the Spodoptera exigua test, resistant strain (in words) [6]: good activity
- Kill rate after 7d in % ([6]; 4 ppm): 100%
- activity in the Plutella test (in words) [7]: good activity
- Kill rate after 7d in % ([7]; 4 ppm): 100%

Structure (SMILES): Cc1cc(I)cc(C2=NOCCN2)c1NC(=O)c1cc(Br)cn1-c1ncccc1Cl [Example I-1-22]
- logP [9]: 2.39
- activity in the Phaedon test (in words) [1]: good activity
- Kill rate after 7d in % ([1]; 100 g/ha): 100%
- activity in the Myzus test, spray treatment (in words) [11]: good activity
- Kill rate after 5d in % [11]: 100%
- activity in the Spodoptera frugiperda test, spray treatment (in words) [2]: good activity
- Kill rate after 7d in % ([2]; 100 g/ha): 100%
- activity in the Myzus test, oral (in words) [8]: good activity
- Kill rate after 5d in % [8]: 100%

Structure (SMILES): Cc1cc(I)cc(C2=NOCCN2)c1NC(=O)c1cc(C(F)(F)F)nn1-c1ncccc1Cl [Example I-1-24]
- logP [9]: 2.66
- activity in the Phaedon test (in words) [1]: good activity
- Kill rate after 7d in % ([1]; 100 g/ha): 100%
- activity in the Myzus test, spray treatment (in words) [11]: good activity
- Kill rate after 5d in % [11]: 90%
- activity in the Spodoptera frugiperda test, spray treatment (in words) [2]: good activity
- Kill rate after 7d in % ([2]; 100 g/ha): 100%
- activity in the Myzus test, oral (in words) [8]: good activity
- Kill rate after 5d in % [8]: 100%

The next lines start with results.

- logP [9]: 3.13
Structure (SMILES): Cc1cc(Cl)cc(C2=NOCCO2)c1NC(=O)c1cc(Br)nn1-c1ncccc1Cl [Example I-1-5]
- activity in the Diabrotica undecimpunctata test (in words) [10]: good activity
- Kill rate after 2-5d in % ([10]; 300 ppm, 2-5 d, eggs): 100%
- activity in the Phaedon test (in words) [1]: good activity
- Kill rate after 7d in % ([1]; 100 g/ha): 83%
- activity in the Spodoptera frugiperda test, spray treatment (in words) [2]: good activity
- Kill rate after 7d in % ([2]; 100 g/ha): 100%

- logP [9]: 3.58
Structure (SMILES): Cc1cc(Br)cc(C2=NOCCO2)c1NC(=O)c1cc(C(F)(F)F)nn1-c1ncccc1Cl [Example I-1-11]
- activity in the Phaedon test (in words) [1]: good activity
- Kill rate after 7d in % ([1]; 100 g/ha): 100%
- activity in the Spodoptera frugiperda test, spray treatment (in words) [2]: good activity
- Kill rate after 7d in % ([2]; 100 g/ha): 100%
- activity in the Spodoptera frugiperda test, watering (in words) [3]: good activity
- Kill rate after 14d in % [3]: 98%
- activity in the Spodoptera exigua test (in words) [4]: good activity
- Kill rate after 7d in % ([4]; 20 ppm): 100%
- activity in the Heliothis armigera test (in words) [5]: good activity
- Kill rate after 7d in % ([5]; 20 ppm): 100%
- activity in the Spodoptera exigua test, resistant strain (in words) [6]: good activity
- Kill rate after 7d in % ([6]; 20 ppm): 80%
- activity in the Plutella test (in words) [7]: good activity
- Kill rate after 7d in % ([7]; 20 ppm): 80%

- logP [9]: 2.21
Structure (SMILES): Cc1cc(I)cc(C2=NOCCN2)c1NC(=O)c1cc(Br)nn1-c1ncccc1Cl [Example I-1-23]
- activity in the Phaedon test (in words) [1]: good activity
- Kill rate after 7d in % ([1]; 100 g/ha): 100%
- activity in the Myzus test, spray treatment (in words) [11]: good activity
- Kill rate after 5d in % [11]: 90%
- activity in the Spodoptera frugiperda test, spray treatment (in words) [2]: good activity
- Kill rate after 7d in % ([2]; 100 g/ha): 100%
- activity in the Myzus test, oral (in words) [8]: good activity
- Kill rate after 5d in % [8]: 100%
